Source: US20250057813A1, “APOPTOSIS RELATED PROTEIN IN THE TGF-BETA SIGNALING PATHWAY (ARTS) MIMETIC COMPOUNDS, COMPOSITIONS, METHODS AND USES THEREOF IN INDUCTION OF APOPTOSIS” (Carmel-Haifa University Economic Corporation Ltd., priority 2022, published 2025)
Peptide text beside a SMILES is read from it. * marks the point of attachment. Cbz = O=C(OCc1ccccc1)*

What was measured:
[1] = system: WT MEFs and Sept4/ARTS KO MEFs cells; test: Western blot of WT MEFs and Sept4/ARTS KO MEFs; format: cell-based, mouse; details: 20 or 40 μM, 24 hours
Experimental: (§1) Cells were lysed in whole-cell extract buffer [25 mM HEPES, pH 7.7, […], 1.5 mM MgCl2, 0.2 mM EDTA, 0.1% Triton X-100, 100 μg/ml phenylmethylsulfonyl fluoride (PMSF) and protease inhibitor cocktail (Roche, 1:100 dilution)] and placed on ice for 30 min (vortexing once after 15 min). After 30 minutes, the samples were centrifuged at 13,000×g for 10 minutes at 4° C. The supernatants containing total protein were measured for protein concentration using Bio-Rad Protein Assay Dye Reagent Concentrate Kit. 40 to […] was separated by sodium dodecyl sulfate-polyacrylamide gel electrophoresis (SDS-PAGE) (12% or 7.5%), followed by transfer to a nitrocellulose membrane. The membranes were blocked with 5% (w/v) non-fat dried skimmed milk powder in PBS supplemented with 0.05% Tween-20 (PBS-T) for 1 h at RT. Next, primary antibodies were added at 4° C. overnight or for 2 h at room temperature. Membranes were then incubated with secondary antibody for 1 h at RT and washed three times for 15 min each with PBS-T. Western Bright ECL (Advansta) was added to the membrane for 30-60 s and analyzed using Image Quant LAS-4000 (GE Healthcare Life Sciences) and Image Quant LAS-4000 software (GE Healthcare Life Sciences).

HL-60 leukemia cell line = test: Western blot analysis of HL-60; format: cell-based; details: 1 μM ABT199, 24 hrs
Experimental: (§2) The cells were lysed in WCE (whole-cell extract) buffer [25 mM Hepes, pH 7.7, 0.3M NaCl, 1.5 mM MgCl2, 0.2 mM EDTA, 0.1% Triton X-100, 100[μg/ml PMSF and protease inhibitor cocktail (Roche, 1:100 dilution)]. 100 μg of total cell protein, measured with the Bio-Rad Protein Assay kit, were separated by SDS-PAGE (12%) followed by transfer for 2 h on to a nitrocellulose membrane. The membrane was blocked with 5% (w/v) non-fat dried skimmed milk powder in PBS supplemented with 0.05% Tween20 (PBS-T) for 1 hour at room temperature (R.T). Membrane was then probed with primary antibody at 4° C. overnight. Next, the membrane was incubated with the appropriate HRP-conjugated secondary antibody, for 1 hour at R.T. and washed 15 min ×3 with PBS-T. WesternBright ECL (Advansta) was added to the membrane for 2 min and analyzed using ImageQuant LAS-4000 analyzer (GE Healthcare Life Sciences) & “ImageQuant LAS-4000” software (GE Healthcare Life Sciences). Densitometry analysis was performed using ImageQuant total lab 7 (GE Healthcare Life Sciences), image analysis software.

[2] = system: CCRF-CEM (acute lymphoblastic leukemia) cell line; test: Western blot analysis of CCRF-CEM; format: cell-based; parameters: cleaved PARP and cleaved Caspase 3: dose or concentration left out as unconfirmed
Experimental: as §2

[3] = system: Sept4/ARTS KO MEFs, shARTS HeLa, A-375, WT MEFs, WT HeLa; test: Western blot of cell lines with different amounts of endogenous ARTS; format: cell-based; details: ABT-199 alone, 24 hrs
Experimental: as §2

[4] = system: A375 human melanoma cells; test: SDS PAGE and Western blot analysis of A375 cells; format: cell-based
Experimental: as §2, §1

p53-ARTS complex = test: BiFC assay in WT MEFs (VN-p53 and VC-ARTS); format: cell-based; details: 200 μM Etoposide
Description: The split-Venus BiFC system was used to evaluate close proximity indicating possible direct binding between pairs of proteins. The proteins were fused either to the N-terminal part of the VenusYFP (yellow fluorescence protein) (VN) or the C-terminal domain (VC). All Venus fragments were fused to the C-terminal sequences of these proteins. The Jun and bFos pair was used as a positive control (p.c.), and the Jun and bFosdeltaZTP pair was used as a negative control (n.c.). A vector encoding dsRed was used as a transfection efficiency marker.

sept4/ARTS KO MEFs = test: Western blot of Sept4/ARTS KO MEFs treated with proteasome inhibitor; format: cell-based, mouse; details: MG-132, 20 μM for 6 hours
Experimental: as §1

SMILES: COC(=O)c1[nH]c2ccc(Cl)cc2c1NC(=O)CN1CCN(Cc2ccccc2)CC1 [A4, 3-[2-(4-Benzyl-piperazin-1-yl)-acetylamino]-5-chloro-1H-indole-2-carboxylic acid methyl ester]
- XIAP levels [1]: downregulates
- p53 levels [1]: upregulate

SMILES: CC1(C)CCC(CN2CCN(c3ccc(C(=O)NS(=O)(=O)c4ccc(NCC5CCOCC5)c([N+](=O)[O-])c4)c(Oc4cnc5[nH]ccc5c4)c3)CC2)=C(c2ccc(Cl)cc2)C1 [ABT-199, 4-[4-[[2-(4-Chlorophenyl)-4,4-dimethyl-1-cyclohexen-1-yl]methyl]-1-piperazinyl]-N-[[3-nitro-4-[[(tetrahydro-2H-pyran-4-yl)methyl]amino]phenyl]sulfonyl]-2-(1H-pyrrolo[2,3-b]pyridin-5-yloxy)benzamide, reference compound]
- cleaved PARP and cleaved Caspase 3 (HL-60 leukemia cell line): upregulated
- cleaved PARP and cleaved Caspase 3 ([2]; ABT-199, 24 hrs): upregulated
- cleaved Caspase 3 ([2]; ABT-199 alone, 24 hrs): increased
- ARTS levels [3]: upregulated
- ARTS levels ([4]; 5 μM ABT-199, 24 hrs): upregulated
- apoptotic markers, cleaved PARP and cleaved Caspase 3 ([4]; 5 μM ABT-199, 24 hrs): upregulated
- BCL-2 levels ([4]; 10 μM ABT-199, 24 hrs): upregulated
- Bcl-2 levels ([4]; ABT-199 alone, 2, 6 and 24 hrs): upregulated

SMILES: COc1cc([C@@H]2c3cc4c(cc3[C@@H](O[C@@H]3O[C@@H]5CO[C@@H](C)O[C@H]5[C@H](O)[C@H]3O)[C@H]3COC(=O)[C@H]23)OCO4)cc(OC)c1O [Etoposide]
- formation of p53-ARTS complex (p53-ARTS complex): promotes

SMILES: CC(C)C[C@@H](C=O)NC(=O)[C@H](CC(C)C)NC(=O)[C@H](CC(C)C)NC(=O)OCc1ccccc1 [MG-132] (Cbz-Leu-Leu-Leu-aldehyde)
- p53 protein levels (sept4/ARTS KO MEFs): accumulation
